From patent publication EP0786470A1, “PEPTIDE COMPOUND” (SEIKAGAKU KOGYO KABUSHIKI KAISHA, priority 1993, dated 1997)
Read-outs that look alike come from different tables or passages of the source. Where a SMILES comes first, the peptide text is derived from it. [ ]: non-standard residue; d: D form. The star is where a group is joined. Piv = CC(C)(C)C(=O)*; GABA = NCCCC(=O)O

Legend:
male Wistar rats = test: Inhibition of (±) Bay K8644-induced spontaneous behavior and rearing, drug administered to caudate nucleus putamen (Test Example 3); type: in vivo, rat; conditions: caudate nucleus putamen administration; for number of spontaneous behavior: induced by (±) Bay K8644 (18.5 µmol/ml), in comparison with the control group (Fig. 5); for inhibition action on number of spontaneous behavior / number of rearing: induced by (±) Bay K8644; for inhibition action on number of spontaneous behavior: compared with PLG (Fig. 5); for number of rearing: compared with PLG (Fig. 6)
Description: At the same time, the number of rearing was counted. The term rearing as used herein means an action to stand upright solely with hind legs, which is counted by the naked eye.
The number of spontaneous behavior is shown in Fig. 5, and the number of rearing in Fig. 6, both induced by (±) Bay K8644.

Wistar rats [1] = conditions: for number of spontaneous behavior: caudate nucleus putamen administration
Description: (§1) Wistar rats (250 to 300 g) were anesthetized with pentobarbital (50 mg/kg, i.p.) and their parietal regions were shaved off and the head was respectively fixed on a rat brain fixing apparatus. After incising the scalp, a hole of 1 to 1.2 mm was made in the cranial bones using an electric drill, and a stainless steel guide cannula of 1 to 1.2 mm in diameter and 23 mm in length was inserted into the hole and fixed to the cranial bones with dental cement. As the insertion position of the guide cannula, co-ordinates of tonsillar nucleus (A: -1.3 mm, L: 3.4 mm and V: 8.6 mm from bregma) were selected with reference to the brain illustrations of Paxions and Watson. Rats were reared for 1 week after the operation and then used in the test.
(§2) Drug-free physiological saline containing 13% ethanol (vehicle) was used as a control in the same manner.

Wistar rats [2] = conditions: for number of spontaneous behavior: tonsillar nucleus administration, 10 µmol/ml at 2.7 µl/min for 2 minutes, after 30 minutes of methamphetamine 1.0 mg/kg i.p., control about 1,250 counts; for inhibition of the total number of spontaneous behavior observed within 2 hours after administration of methamphetamine: rat, in vivo
Description: as §1, §2

[3] = after 30 minutes of methamphetamine 1.0 mg/kg i.p.

SMILES | number of spontaneous behavior (male Wistar rats) | number of spontaneous behavior (Wistar rats [1]; 10 µmol/ml at 2.7 µl/min for 2 minutes, after 15 minutes of methamphetamine 1.0 mg/kg i.p.) | number of spontaneous behavior (Wistar rats [1]; [3]) | number of spontaneous behavior (Wistar rats [2]) | inhibition action on number of spontaneous behavior (male Wistar rats) | number of rearing (male Wistar rats) | number of spontaneous behavior (Wistar rats [1]; after 75 minutes of methamphetamine 1.0 mg/kg i.p.) | site selectivity (Wistar rats [1]; caudate nucleus putamen versus tonsillar nucleus administration) | inhibition of the total number of spontaneous behavior observed within 2 hours after administration of methamphetamine (Wistar rats [2])
CC(C)C[C@H](NC(=O)C(C)(C)C)C(=O)NCCCC(=O)O [PLG, Piv-Leu-GABA, reference compound] | decreased | about 650 counts | about 600 counts | about 750 counts | – | – | – | – | –
CC(C)C[C@H](NC(=O)[C@@H](CO)NC(=O)C(C)(C)C)C(=O)NCCCC(=O)O [PDSLG, Piv-D-Ser-Leu-GABA] (Piv-[dS]-Leu-[GABA]-OH) | decreased | – | – | about 820 counts | stronger than that of PLG | definitely strong inhibition effect in comparison with PLG | about 300 counts | stronger action on caudate nucleus putamen | about 25%
CC(C)C[C@H](NC(=O)[C@H](CO)NC(=O)C(C)(C)C)C(=O)NCCCC(=O)O [PSLG, Piv-L-Ser-Leu-GABA] (Piv-Ser-Leu-[GABA]-OH) | decreased | – | about 600 counts | about 900 counts | stronger than that of PLG | definitely strong inhibition effect in comparison with PLG | – | – | about 25%
